Consider 25 molecules from ChEMBL document CHEMBL1138989, “Selective antiproliferative activity of hydroxynaphthyl-beta-D-xylosides” (J Med Chem, 2006).

SMILES strings stand for the structures. Activity calls are given as the source filed them. The calls are words filed in the database; no cut-off is given here.

As usually defined, the pKa is the pH at which an ionisable group is half protonated. High values mean a weaker acid or stronger base, low ones a stronger acid or weaker base.

For series [1], the system named is T-24. In words: Antiproliferative activity against human bladder carcinoma T24 cells. Type of series: functional. Particulars: read-out: ED50 (the source's name).
A further series concerns HFL1. In words: Antiproliferative activity against human fibroblast HFL1 cells. Type of series: functional. Conditions: read-out: ED50 (the source's name).
A further series relates to BALB/3T3. In words: Antiproliferative activity against mouse fibroblast 3T3 A31 cells. Type of series: functional. Conditions: read-out: ED50 (the source's name).
In a further series the test system is SV3T3. In words: Antiproliferative activity against virus transformed mouse fibroblast 3T3 SV40 cells. Type of series: functional. Particulars: read-out: ED50 (the source's name).
A short description of series [2]: Dissociation constant, pKa of the compound. Type of series: physicochemical.
In series [3] the test system is T-24. In words: Ability to prime Heparan sulfate synthesis in T24 cells at 0.1 mM. Type of series: functional, Homo sapiens.
The test system of series [4] is T-24. In words: Induction of apoptosis in T24 cells using TUNEL assay. Type of series: functional, cell-based. Particulars: Homo sapiens.

On to `Oc1ccc2ccc(O)cc2c1`, for which the results for the EC50 in the series on T-24 [1] and with HFL1 were 30 µM and 70 µM, respectively.
`Oc1c(O[C@@H]2OC[C@@H](O)[C@H](O)[C@H]2O)ccc2ccccc12`: the EC50 is 120 µM in the series on BALB/3T3, 120 µM with SV3T3, 160 µM in the series with T-24 [1] and 40 µM with HFL1. In series [2], this molecule gave a pKa of 8.72. This molecule also gave an Activity with T-24 [3] of 22%.
In the case of `Oc1ccc2ccccc2c1O`, the values for the EC50 with T-24 [1] and in the series on HFL1 were 13 µM and 25 µM, respectively.
With `Oc1cccc2cccc(O)c12`, the EC50 in the series with T-24 [1] turned out to be 10 µM; with HFL1, 20 µM.
Turning to `Oc1cccc2c(O)cccc12`, the results for the EC50 in the series with T-24 [1] and in the series on HFL1 were under 10 µM and 20 µM, respectively.
`Oc1ccc(O[C@@H]2OC[C@@H](O)[C@H](O)[C@H]2O)c2ccccc12`: the EC50 in the series on BALB/3T3 is 165 µM; with SV3T3 it was 105 µM; in the series with T-24 [1], 1 µM; in the series with HFL1, 6 µM. The same molecule returned a pKa in series [2] of 9.4. The Activity in the series on T-24 [3] worked out at 12%.
Turning to `Oc1cc(O)c2ccccc2c1`, the EC50 in the series on T-24 [1] came to 70 µM; with HFL1, 100 µM.
Turning to `Oc1cc(O[C@@H]2OC[C@@H](O)[C@H](O)[C@H]2O)c2ccccc2c1`, the EC50 in the series on BALB/3T3 came out at 130 µM; in the series on SV3T3, 275 µM; in the series on T-24 [1], 100 µM; in the series on HFL1, 240 µM. In addition, the pKa in series [2] was determined as 9.22. This molecule also had an Activity with T-24 [3] of 14%.
`Oc1ccc2c(O)cccc2c1`: the EC50 with T-24 [1] turned out to be 20 µM; in the series on HFL1, 70 µM.
Regarding `Oc1cccc2cc(O[C@@H]3OC[C@@H](O)[C@H](O)[C@H]3O)ccc12`, the EC50 in the series on BALB/3T3 is over 500 µM; in the series with SV3T3, 430 µM; with T-24 [1] it was 600 µM; with HFL1, 500 µM. This molecule displayed a pKa in series [2] of 9.17. This molecule also had an Activity in the series with T-24 [3] of 12%.
On to `Oc1ccc2cccc(O[C@@H]3OC[C@@H](O)[C@H](O)[C@H]3O)c2c1`, for which the EC50 was determined as 260 µM in the series on BALB/3T3, 550 µM with SV3T3, 370 µM with T-24 [1] and 370 µM in the series on HFL1. Moreover, the pKa in series [2] worked out at 9.35. Further, in the series on T-24 [3], the Activity is reported as 15%.
As for `Oc1ccc2cc(O[C@@H]3OC[C@@H](O)[C@H](O)[C@H]3O)ccc2c1`, the EC50 with BALB/3T3 was determined as 440 µM; with SV3T3 it was 320 µM; in the series with T-24 [1] it was 100 µM; in the series on HFL1, 500 µM. The molecule further gave a pKa in series [2] of 9.63. The Activity in the series on T-24 [3] was 30%. In addition, the result in the series on T-24 [4] was Active.
Turning to `Oc1cccc2ccc(O[C@@H]3OC[C@@H](O)[C@H](O)[C@H]3O)cc12`, the EC50 is 160 µM in the series on BALB/3T3, 510 µM in the series on SV3T3, 420 µM in the series on T-24 [1] and 330 µM with HFL1. In series [2], this molecule yielded a pKa of 9.29. The Activity with T-24 [3] stood at 27%.
As for `Oc1cc2ccccc2cc1O`, the EC50 in the series on T-24 [1] came to 30 µM; in the series on HFL1, 40 µM.
Regarding `Oc1cc2ccccc2cc1O[C@@H]1OC[C@@H](O)[C@H](O)[C@H]1O`, the EC50 in the series with BALB/3T3 was 25 µM; in the series on SV3T3, 180 µM; in the series with T-24 [1] it was 400 µM; in the series with HFL1, 190 µM. Also, the pKa in series [2] is 8.76. The Activity in the series on T-24 [3] came out at 28%.
In the case of `Oc1cccc2cccc(O[C@@H]3OC[C@@H](O)[C@H](O)[C@H]3O)c12`, the EC50 in the series on BALB/3T3 amounted to 185 µM; in the series with SV3T3, 340 µM; in the series on T-24 [1], 220 µM; in the series with HFL1, 180 µM. This molecule also showed a pKa in series [2] of 10.1. The molecule further registered an Activity in the series on T-24 [3] of 27%.
Consider `Oc1ccc2c(O[C@@H]3OC[C@@H](O)[C@H](O)[C@H]3O)cccc2c1`, for which the EC50 is 210 µM in the series on BALB/3T3, over 500 µM in the series on SV3T3, 125 µM with T-24 [1] and 370 µM with HFL1. For the same molecule, the pKa in series [2] is 9.34. This molecule gave an Activity with T-24 [3] of 13%.
For the molecule `Oc1ccc2ccc(O[C@@H]3OC[C@@H](O)[C@H](O)[C@H]3O)cc2c1`, the EC50 was 300 µM in the series with BALB/3T3, 460 µM in the series on SV3T3, 500 µM in the series on T-24 [1] and 500 µM in the series with HFL1. This molecule also displayed a pKa in series [2] of 9.41. The Activity in the series with T-24 [3] is recorded as 37%.
For `Oc1ccc2cccc(O)c2c1`, the EC50 in the series with T-24 [1] is under 10 µM; with HFL1, under 25 µM.
Consider `Oc1ccc2ccccc2c1O[C@@H]1OC[C@@H](O)[C@H](O)[C@H]1O`, for which the EC50 in the series on BALB/3T3 was 10 µM; in the series with SV3T3, 65 µM; in the series on T-24 [1], 150 µM; in the series with HFL1, 80 µM. The same molecule displayed a pKa in series [2] of 8.63. Also, the Activity in the series with T-24 [3] came out at 2%.
In the case of `Oc1cccc2c(O[C@@H]3OC[C@@H](O)[C@H](O)[C@H]3O)cccc12`, the EC50 with BALB/3T3 is over 500 µM; in the series with SV3T3 it was over 500 µM; in the series with T-24 [1] it was 470 µM; in the series on HFL1, 500 µM. The pKa in series [2] was 9.16. The Activity in the series with T-24 [3] is listed as 29%.
Turning to `Oc1ccc(O)c2ccccc12`, the EC50 in the series on T-24 [1] is 0.7 µM; with HFL1, 1 µM.
With `Oc1ccc2cc(O)ccc2c1`, the EC50 in the series on T-24 [1] is under 10 µM; with HFL1 it was under 25 µM.
For the molecule `O[C@@H]1[C@@H](O)[C@H](Oc2ccc3ccccc3c2)OC[C@H]1O`, the result in the series with T-24 [4] was inactive.
As for `Oc1cc(O[C@@H]2OC[C@@H](O)[C@H](O)[C@H]2O)cc2ccccc12`, the EC50 in the series on BALB/3T3 is 410 µM; in the series on SV3T3, 575 µM; in the series with T-24 [1] it was 25 µM; with HFL1, 320 µM. In series [2], this molecule returned a pKa of 8.66. In the series with T-24 [3], this molecule yielded an Activity of 20%.
